Reference: patent publication US20120149647A1, “Methods for Assessing the Efficacy of Gemcitabine or Ara-C Treatment of Cancer Using Human Antigen R Levels” (priority 2009, published 2012)
Entries after “also recorded” stand apart in the source; their conditions may differ.

Experiments:
[1] = tested on: pancreatic cancer cell lines MiaPaca2, PL-5, and Hs766t; test: Drug sensitivity assay (PicoGreen cell survival), HuR-overexpressing vs control lines; assay type: cell-based; details: PicoGreen cell survival after 5-7 days of drug, HuR vs empty vector/control cells
From the text: HuR cDNA sequence was cloned into the pcDNA 3.1. Zeo vector (Invitrogen) for stable transfection of pancreatic cancer cell lines MiaPaca2, PL-5, and Hs766t. Pooled cells remained under selection media containing Zeocin (Invitrogen) for several months after transfection. Mia.HuR, PL5.HuR, and Hs766t. HuR denote link overexpressing lines; Mia.EV, PL5.EV, and Hs766t denote empty vector or control lines. HuR and control siRNA sequences and transfection conditions were as described.
Mia.HuR, Mia.EV, Hs766t.HUR, Hs766t, and PL5.HuR, PL5.EV cells were seeded (1000 cells/well) in 96-well plates and treated with Etoposide, 5-Fluorouracil, Cis-platin, Staurosporine, Nocodazole, Colcemid, Ara-C (Sigma), and GEM (Gemzar, Eli-Lilly, Indianapolis, Ind.) for 6-7 days. After treatment, cells were washed with PBS and lysed with 100 μL of water/well; cell viability was quantified by staining of double-stranded DNA with QuantiT™ PicoGreen (Invitrogen) and analyzed with a TECAN SpectraFluor.

[2] = tested on: Mia.EV and Mia.HuR cell lines; test: Cell cycle analysis and apoptosis assay (flow cytometry); assay type: cell-based; details: 0.03 μM GEM, 48 h
Experimental: Mia.EV and Mia.HuR cell lines were either left untreated or treated with 0.03 μM GEM for 48 h. For cell cycle analysis, cells were then fixed in 100% ethanol, and stained with a propidium iodide solution containing RNAse A (Sigma Aldrich). For apoptosis assays, cells were resuspended at 10^6 cells/mL and incubated in Annexin V and Propidium Iodide, following the manufacturers' protocol (FITC Annexin V, BD Pharmigen). Both assays were analyzed by flow cytometry.

HuR in MiaPaCa2 cells = test: HuR levels and localization by immunoblot and immunofluorescence; assay type: cell-based; details: parental MiaPaCa2 cells, GEM treatment
Experimental: Cells were plated on LabTek II™ Chamber slides (Fisher Scientific) and fixed in 3% paraformaldehyde (20 min, RT). Cells were washed with PBS and permeabilized using 0.5% Triton X-100/1% normal goat serum (Vector Laboratories) in PBS (15 min). After washes in 1% goat serum/PBS, cells were incubated (1:50 dilution, 1 hr, RT) with mouse anti-HuR (Santa Cruz) or anti-deoxycytidine kinase (dCK, Abnova) primary antibodies. After washes in PBS, cells were incubated for 1 hr with goat anti-mouse secondary antibody (1:400, Alexa Fluor 647, Molecular Probes). Nuclei were stained with DAPI and cells were evaluated under a Zeiss LSM-510 Confocal Laser Microscope.
Whole-cell, cytoplasmic, and nuclear lysates were prepared as described (Kuwano Y, et al. Mol Cell Biol 2008; 28:4562-75), and protein was size-fractionated by SDS-PAGE (10% acrylamide). Membranes were blocked for 1 h in 5% Milk/TBS-T and incubated overnight with monoclonal antibodies (Santa Cruz) recognizing HuR, dCK, the cytoplasmic marker α-Tubulin, or the nuclear marker hnRNP. Membranes were washed with TBS-T and incubated with secondary antibodies; and the resulting signals were visualized by chemiluminescence (Millipore). Total protein was visualized with Fast Green (USB).

[3] = tested on: HuR association with dCK mRNA in MiaPaCa2 cells; test: RNP IP assay of HuR association with dCK mRNA; dCK protein and mRNA levels; assay type: cell-based; details: GEM treatment
Experimental: MiaPaCa2 cells were treated with 4 μM GEM and collected 48 hours later. For biotin pulldown analysis (Kuwano Y, et al. Mol Cell Biol 2008; […]), cytoplasmic extracts were isolated using, the NE-PER® Nuclear and Cytoplasmic Extraction Reagents Kit (Pierce Biotechnology) Probes for biotin pull-down analysis were synthesized as described (Kuwano Y, et al. Mol Cell Biol 2008; […] using the following PCR primers (sense and antisense, respectively) containing the T7 RNA polymerase promoter sequence […] (T7) (SEQ ID NO: 1): (T7)[…] (SEQ ID NO: 2) and […] (SEQ ID NO: 3) for dCK 3′UTR; (T7)[…] (SEQ ID NO: 4) and […] (SEQ ID NO: 5) for GAPD 3′UTR (Casolaro V, et al. J Allergy Clin Immunol 2008; 121:853-9 e4) (see supplemental figure for depiction of UTR positions). Biotinylated probes were synthesized using the MAXIscript T7 kit (Ambion) and Biotinylated dCTP (Enzo Life Sciences). For immunoprecipitation of endogenous RNA-protein complexes (RNP IP) from cytoplasmic (450 μg) extracts, reactions were carried out as described (Kuwano Y, et al. Mol Cell Biol 2008; 28:4562-75), using protein A Sepharose beads (Sigma) that were precoated with 30 μg of either mouse immunoglobulin G1 (IgG1; BD Biosciences), or anti-HuR antibodies. […] GAPDH and dCK transcripts were quantified by real-time PCR analysis using each specific primers: […] […]

[4] = tested on: pancreatic ductal adenocarcinoma; test: Overall survival of resected PDA patients receiving GEM, stratified by cytoplasmic HuR; assay type: in vivo; details: for adjusted hazard ratio of low to high HuR: adjusted for age, sex, Xeloda use and radiation therapy
Experimental: HuR immunostaining was performed on 32 resected PDA specimens from the Thomas Jefferson University pathology archives after IRB approval. All patients received GEM, alone or in combination with XELODA® (Capecitabine) (2 patients), radiation therapy (8 patients) or both (2 patients). The experienced pancreatic pathologist (A.K.W.) reviewed all cases in a blinded fashion and classified the tumors as well differentiated (n=6), moderately differentiated (n=22), or poorly differentiated […]. For each case, representative sections were selected for immunohistochemical analysis of HuR cytoplasmic and nuclear staining patterns, which were scored using the following scale: 0 for no staining, 1 for weak and/or focal (<10% of the cells) staining; 2 for moderate or strong, staining (10-50% of the cells); and 3 for moderate or strong staining (>50% of the cells). Combined scores 0 and 1 represented low expression, while combined scores 2 and 3 represented high expression.

[5] = patients receiving GEM, listed as gemcitabine

Compound	sensitivity of HuR-overexpressing cell lines compared with control lines [1]	sensitivity of HuR-overexpressing cell lines compared with control lines ([1]; listed as gemcitabine)	apoptosis of HuR overexpressing cells compared to control cells [2]	cell cycle distribution of HuR overexpressing cells compared to control cells [2]	cytoplasmic HuR levels (HuR in MiaPaCa2 cells)	whole-cell HuR levels (HuR in MiaPaCa2 cells)	overall dCK protein or mRNA levels [3]	HuR's association with dCK mRNA ([3]; RNP IP)	hazard ratio of low to high HuR, univariate Cox regression ([4]; patients receiving GEM)	adjusted hazard ratio of low to high HuR ([4]; patients receiving GEM)	adjusted hazard ratio of low to high HuR [4, 5]	hazard ratio of low to high HuR, univariate Cox regression [4, 5]	increase in risk of death, low vs high HuR levels [4, 5]	median overall survival time for patients on GEM ([4]; resected PDA patients, GEM alone or combined)
Nc1ccn([C@@H]2O[C@H](CO)[C@@H](O)[C@@H]2O)c(=O)n1 [Ara-C, Cytarabine]	selectively more sensitive; also recorded: hypersensitive	–	–	–	–	–	–	–	–	–	–	–	–	–
Nc1ccn(C2OC(CO)C(O)C2(F)F)c(=O)n1 (stereo not drawn) [GEM, 4-amino-1-[3,3-difluoro-4-hydroxy-5-(hydroxymethyl)tetrahydrofuran-2-yl]-1H-pyrimidin-2-one]	more sensitive	strikingly hypersensitive	increased apoptosis	selective enrichment in the S-phase	significantly increased	did not alter	did not alter	significantly increased	4.48	7.34	5.04	3.36	5 fold	619 days
